Results on six compounds are retold here after ChEMBL document CHEMBL1152592, “Design, synthesis and biological evaluations of novel 7-[3-(1-aminocycloalkyl)pyrrolidin-1-yl]-6-desfluoro-8-methoxyquinolones with potent antibacterial activity against multi-drug resistant Gram-positive bacteria” (Bioorg Med Chem, 2009).

As a reminder, the MIC is the smallest concentration in the dilution series that meets the test's criterion for growth inhibition. Read a low MIC as greater potency. As a reminder, the solubility is the concentration that dissolves in the medium under given conditions. Broadly, the IC50 is the point on the concentration scale where inhibition reaches its midpoint. For orientation: MIC50 means an inhibitory concentration at the 50% level, which refers to growth in some studies and to a panel of isolates in others. High values mean weaker potency, low ones greater potency. In general, MIC80 refers to the lowest concentration that inhibits either 80% of growth or 80% of the strains tested, depending on the study. Low values mean greater potency, high ones weaker potency. A word on the MIC90: it is the lowest concentration that inhibits either 90% of growth or 90% of the strains tested, depending on the study.

Values after ≈ are worked out from the molar mass of the structure shown.

For series [1], the system named is Streptococcus pneumoniae. Kind of series: Antibacterial activity against Streptococcus pneumoniae J-24 after 18 hrs by twofold microbroth dilution method. It counts as functional. Particulars: J-24, 18 h. For orientation: Broth dilution looks for growth in wells or tubes with falling amounts of substance.
The nature of series [2]: Aqueous […] of the compound. In kind it is physicochemical. The conditions noted are these: aqueous (not further specified).
Series [3] deals with Staphylococcus aureus. Kind of series: Antibacterial activity against Staphylococcus aureus FDA 209-P after 18 hrs by twofold microbroth dilution method. It counts as functional.
The subject of another series is Streptococcus mitis. Kind of series: Antibacterial activity against Streptococcus mitis IID685 after 18 hrs by twofold microbroth dilution method. The conditions noted are these: IID685, 18 h. It counts as functional.
A further series has as its system Streptococcus pyogenes. Kind of series: Antibacterial activity against Streptococcus pyogenes G-36 after 18 hrs by twofold microbroth dilution method. It counts as functional. The conditions noted are these: G-36, 18 h.
A further series concerns Escherichia coli. Kind of series: Antibacterial activity against Escherichia coli NIHJ after 18 hrs by twofold microbroth dilution method. It counts as functional.
The test system of series [4] is Mus musculus. Put plainly: Toxicity in Slc:ddY mouse at 150 mg/kg, iv. In kind it is organism-based. Also noted: dose 150 mg/kg, route intravenous. Particulars: in vivo.
The subject of another series is Klebsiella pneumoniae. Kind of series: Antibacterial activity against Klebsiella pneumoniae type 2 after 18 hrs by twofold microbroth dilution method. In kind it is functional. Particulars: type 2, 18 h.
Series [5] has as its system Staphylococcus epidermidis. Kind of series: Antibacterial activity against Staphylococcus epidermidis 56500 after 18 hrs by twofold microbroth dilution method. In kind it is functional. Particulars: Staphylococcus epidermidis, 56500, 18 h.
The test system of series [6] is Enterococcus faecalis. Kind of series: Antibacterial activity against Enterococcus faecalis ATCC 19433 after 18 hrs by twofold microbroth dilution method. In kind it is functional. Particulars: ATCC19433, 18 h.
The test system of another series is Pseudomonas aeruginosa. Kind of series: Antibacterial activity against Pseudomonas aeruginosa PAO1 after 18 hrs by twofold microbroth dilution method. It counts as functional. Particulars: PAO1, 18 h.
Series [7] deals with Mus musculus. Put plainly: Toxicity in Slc:ddY mouse at 50 mg/kg, iv. In kind it is organism-based. Also noted: dose 50 mg/kg, route intravenous. Particulars: in vivo.
For series [8], the system named is Mus musculus. Put plainly: Toxicity in Slc:ddY mouse at 100 mg/kg, iv. In kind it is organism-based. Also noted: dose 100 mg/kg, route intravenous. Particulars: in vivo.
The next series concerns the target DNA gyrase subunit A (Staphylococcus aureus, UniProt P20831, S84L). Put plainly: Inhibition of Staphylococcus aureus DNA gyrase Ser84Leu mutant.
For series [9], the system named is Staphylococcus aureus. Put plainly: Antibacterial activity against levofloxacin, methicillin-resistant Staphylococcus aureus after 18 hrs by twofold microbroth dilution method. It counts as functional.
Series [10] is described as follows: Inhibition of Staphylococcus aureus DNA topoisomerase 4 Ser80Phe mutant.
A short description of series [11]: Inhibition of Staphylococcus aureus wild type DNA topoisomerase 4.
For the next series, the target named is DNA gyrase (Staphylococcus aureus, UniProt P0A0K8+P20831). Put plainly: Inhibition of Staphylococcus aureus wild type DNA gyrase. It counts as protein-complex assay.
The next series concerns Enterococcus faecium. Kind of series: Antibacterial activity against vancomycin-resistant Enterococcus faecium after 18 hrs by twofold microbroth dilution method. It counts as functional.
Series [12] relates to Streptococcus pneumoniae. Put plainly: Antibacterial activity against penicillin-intermediate resistant Streptococcus pneumoniae after 18 hrs by twofold microbroth dilution method. It counts as functional.
The test system of series [13] is Staphylococcus aureus. Kind of series: Selectivity ratio of IC50 for Staphylococcus aureus DNA gyrase Ser84Leu mutant to IC50 for Staphylococcus aureus wild type DNA gyrase.
The subject of series [14] is Enterococcus faecalis. Kind of series: Antibacterial activity against vancomycin-resistant Enterococcus faecalis after 18 hrs by twofold microbroth dilution method. In kind it is functional.
Series [15] concerns Staphylococcus aureus. Kind of series: Selectivity ratio of IC50 for Staphylococcus aureus DNA topoisomerase 4 Ser80Phe mutant to IC50 for Staphylococcus aureus wild type DNA topoisomerase 4.
Series [16] deals with Staphylococcus aureus. Kind of series: Antibacterial activity against ciprofloxacin, methicillin-resistant Staphylococcus aureus after 18 hrs by twofold microbroth dilution method. It counts as functional.

As for `COc1c(N2CC[C@@H](C3(N)CCC3)C2)c(F)cc2c(=O)c(C(=O)O)cn([C@@H]3C[C@@H]3F)c12`, the MIC in the series on Streptococcus pneumoniae [1] was at most 0.003 µg/mL; against Staphylococcus aureus [3], at most 0.003 µg/mL; in the series on Streptococcus mitis it was 0.003 µg/mL (≈ 0.00692 µM); against Streptococcus pyogenes, 0.003 µg/mL (≈ 0.00692 µM); in the series with Escherichia coli, at most 0.003 µg/mL; against Klebsiella pneumoniae it was 0.025 µg/mL (≈ 0.0577 µM). For the same compound, the MIC in [5] is at most 0.003 µg/mL; in the series with Enterococcus faecalis [6], 0.025 µg/mL (≈ 0.0577 µM); with Pseudomonas aeruginosa, 0.39 µg/mL (≈ 0.9 µM). The compound further showed a solubility in series [2] of 180 µg/mL (≈ 415 µM). Besides, the Activity result in the series with Mus musculus [4] is listed as “Toxic”.
As to `COc1c(N2CC[C@@H](C3(N)CC3)C2)c(F)cc2c(=O)c(C(=O)O)cn([C@@H]3C[C@@H]3F)c12`, the MIC in the series on Streptococcus pneumoniae [1] was at most 0.003 µg/mL; against Staphylococcus aureus [3] it was at most 0.003 µg/mL; against Streptococcus mitis, 0.003 µg/mL (≈ 0.00715 µM); in the series with Streptococcus pyogenes it was 0.003 µg/mL (≈ 0.00715 µM); with Escherichia coli, at most 0.003 µg/mL; in the series on Klebsiella pneumoniae it was 0.012 µg/mL (≈ 0.0286 µM). Further, the minimum inhibitory concentration (MIC) in [5] was at most 0.003 µg/mL; in the series on Enterococcus faecalis [6] it was 0.012 µg/mL (≈ 0.0286 µM); in the series on Pseudomonas aeruginosa, 0.2 µg/mL (≈ 0.477 µM). The compound also gave a solubility in series [2] of 221 µg/mL (≈ 527 µM). The Activity entry in the series on Mus musculus [7], with Mus musculus [8] and with Mus musculus [4] was “Toxic” throughout.
The compound `COc1c(N2CC[C@@H]([C@H](C)N)C2)c(F)cc2c(=O)c(C(=O)O)cn(C3CC3)c12` came in with a solubility in series [2] of 89 µg/mL (≈ 229 µM). In addition, the Activity entry in the series with Mus musculus [7] and with Mus musculus [8] was “Toxic” in each case. In addition, the minimal inhibitory concentration (MIC) is 0.025 µg/mL (≈ 0.0642 µM) in the series with Streptococcus mitis; 0.012 µg/mL (≈ 0.0308 µM) against Streptococcus pyogenes; 0.012 µg/mL (≈ 0.0308 µM) with Escherichia coli; 0.05 µg/mL (≈ 0.128 µM) against Klebsiella pneumoniae; 0.012 µg/mL (≈ 0.0308 µM) in series [5]; 0.05 µg/mL (≈ 0.128 µM) with Enterococcus faecalis [6].
With `C[C@H]1COc2c(N3CCN(C)CC3)c(F)cc3c(=O)c(C(=O)O)cn1c23.C[C@H]1COc2c(N3CCN(C)CC3)c(F)cc3c(=O)c(C(=O)O)cn1c23.O` [LEVOFLOXACIN], the half-inhibitory concentration (IC50) at DNA gyrase subunit A was over 1380 µM. Also, in the series with Staphylococcus aureus [9], the MIC50 was found to be 16 µg/mL, the MIC80 is over 64 µg/mL and the MIC90 is over 64 µg/mL. Moreover, the concentration for half-maximal inhibition (IC50) in [10] stood at 57.1 µg/mL. The compound further had a concentration for half-maximal inhibition (IC50) in series [11] of 2.67 µg/mL.
Regarding `COc1c(N2CCNC(C)C2)c(F)cc2c(=O)c(C(=O)O)cn(C3CC3)c12` (stereo unspecified) [GATIFLOXACIN], the IC50 against DNA gyrase subunit A was 765 µM; against DNA gyrase, 8.58 µM; in series [10], 22.5 µg/mL (≈ 59.9 µM); in series [11] it was 1.85 µg/mL (≈ 4.93 µM). In addition, the MIC in the series on Streptococcus pneumoniae [1] worked out at 0.2 µg/mL (≈ 0.533 µM); with Staphylococcus aureus [3], 0.05 µg/mL (≈ 0.133 µM); in the series with Streptococcus mitis, 0.2 µg/mL (≈ 0.533 µM); in the series on Streptococcus pyogenes, 0.39 µg/mL (≈ 1.04 µM); against Escherichia coli, 0.006 µg/mL (≈ 0.016 µM); with Klebsiella pneumoniae it was 0.05 µg/mL (≈ 0.133 µM). For the same compound, the minimum inhibitory concentration (MIC) in series [5] came out at 0.2 µg/mL (≈ 0.533 µM); in the series on Enterococcus faecalis [6], 0.39 µg/mL (≈ 1.04 µM); against Pseudomonas aeruginosa, 0.78 µg/mL (≈ 2.08 µM). Further, the MIC50 against Enterococcus faecium came out at 4 µg/mL (≈ 10.7 µM); with Streptococcus pneumoniae [12], 0.5 µg/mL (≈ 1.33 µM); against Enterococcus faecalis [14], 16 µg/mL (≈ 42.6 µM); with Staphylococcus aureus [16], 4 µg/mL (≈ 10.7 µM). In addition, the MIC90 against Enterococcus faecium was 32 µg/mL (≈ 85.2 µM); against Streptococcus pneumoniae [12], 0.5 µg/mL (≈ 1.33 µM); against Enterococcus faecalis [14], 32 µg/mL (≈ 85.2 µM); in the series with Staphylococcus aureus [16], 64 µg/mL (≈ 170 µM). The results for the Ratio IC50 in the series on Staphylococcus aureus [13] and in the series with Staphylococcus aureus [15] were 89.1 and 12.2, respectively.
Regarding `N[C@@H]1[C@H]2CN(c3nc4c(cc3F)c(=O)c(C(=O)O)cn4-c3ccc(F)cc3F)C[C@@H]12` [TROVAFLOXACIN], the minimum inhibitory concentration (MIC) in the series with Streptococcus pneumoniae [1] is 0.05 µg/mL (≈ 0.12 µM); in the series with Staphylococcus aureus [3] it was 0.013 µg/mL (≈ 0.0312 µM); against Streptococcus mitis, 0.1 µg/mL (≈ 0.24 µM); with Streptococcus pyogenes, 0.2 µg/mL (≈ 0.48 µM); with Escherichia coli it was at most 0.003 µg/mL; in the series with Klebsiella pneumoniae, 0.025 µg/mL (≈ 0.06 µM). In addition, the results for the minimal inhibitory concentration (MIC) (in series [5]; against Enterococcus faecalis [6]; against Pseudomonas aeruginosa) were 0.05 µg/mL (≈ 0.12 µM), 0.2 µg/mL (≈ 0.48 µM) and 0.2 µg/mL (≈ 0.48 µM), respectively.
